Read-outs that look alike come from different tables or passages of the source.
Experiments:
[1] = target: hWRN(519-1227)_C-H3CV-GFP-10His (Homo sapiens, UniProt Q14191); test: Helicase Assay for WRN Inhibition (ATP-dependent, fluorescence based)
Experimental: Effects of compounds on WRN helicase activity were assessed with the Helicase Assay for WRN Inhibition. This is an ATP-dependent (inclusion of ATP is important and is required for this assay) fluorescence based assay using recombinant WRN and a fluorogenic DNA substrate.
WRN activity was normalized to signal from wells without WRN protein (background, 0% activity) and wells with protein treated only with DMSO (positive control, 10000 activity). For each compound the potency of inhibition (IC50) was determiined using Graphpad Prism.

[2] = target: T1, WRN C727 (Homo sapiens, UniProt Q14191); test: Target engagement, in vitro (lysate), OCI-AML2; format: binding; conditions: read-out: OCI-AML2 WRN C727 TE50 in vitro (lysate)
T1 construct: endogenous in cells; host or cells: OCI-AML2
Experimental: Cells or cell lysates were treated with a dose response of compound followed by probe treatment, which labels solvent exposed cysteines. Proteins were enzymatically digested with trypsin and probe-labelled peptides were enriched with streptavidin. Isolated peptides were then separated using reversed-phase liquid chromatography on a C18 column (Dionex Ultimated 3000 nano-LC, Thermo). Peptides were analyzed by parallel reaction monitoring mass spectrometry (Exploris 120, Thermo).
Target engagement (%) is calculated relative to DMSO treated control samples.

[3] = WRN Helicase IC50, 30 min preincubation with ATP, 30 min reaction

Sequence of hWRN(519-1227)_C-H3CV-GFP-10His (Q14191 519-1227): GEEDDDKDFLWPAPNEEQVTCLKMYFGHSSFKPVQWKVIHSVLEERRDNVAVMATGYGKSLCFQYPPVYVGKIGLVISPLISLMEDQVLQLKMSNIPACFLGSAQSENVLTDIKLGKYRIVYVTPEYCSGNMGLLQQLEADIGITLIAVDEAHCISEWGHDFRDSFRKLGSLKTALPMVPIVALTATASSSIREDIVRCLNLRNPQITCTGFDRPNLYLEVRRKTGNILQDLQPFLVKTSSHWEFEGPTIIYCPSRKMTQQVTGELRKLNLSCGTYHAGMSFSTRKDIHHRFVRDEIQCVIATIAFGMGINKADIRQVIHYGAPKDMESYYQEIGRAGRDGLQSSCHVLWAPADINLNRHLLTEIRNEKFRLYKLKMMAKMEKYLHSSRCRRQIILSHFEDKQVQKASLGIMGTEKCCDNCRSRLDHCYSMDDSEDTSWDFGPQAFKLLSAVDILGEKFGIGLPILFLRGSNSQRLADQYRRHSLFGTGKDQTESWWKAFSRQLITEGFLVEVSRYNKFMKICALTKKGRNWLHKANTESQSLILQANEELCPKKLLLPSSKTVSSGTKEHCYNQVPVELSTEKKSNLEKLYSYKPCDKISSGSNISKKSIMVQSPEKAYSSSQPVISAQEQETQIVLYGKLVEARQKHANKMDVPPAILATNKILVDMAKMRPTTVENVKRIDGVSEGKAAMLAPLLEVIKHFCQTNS
T1 sequence (Q14191 whole entry): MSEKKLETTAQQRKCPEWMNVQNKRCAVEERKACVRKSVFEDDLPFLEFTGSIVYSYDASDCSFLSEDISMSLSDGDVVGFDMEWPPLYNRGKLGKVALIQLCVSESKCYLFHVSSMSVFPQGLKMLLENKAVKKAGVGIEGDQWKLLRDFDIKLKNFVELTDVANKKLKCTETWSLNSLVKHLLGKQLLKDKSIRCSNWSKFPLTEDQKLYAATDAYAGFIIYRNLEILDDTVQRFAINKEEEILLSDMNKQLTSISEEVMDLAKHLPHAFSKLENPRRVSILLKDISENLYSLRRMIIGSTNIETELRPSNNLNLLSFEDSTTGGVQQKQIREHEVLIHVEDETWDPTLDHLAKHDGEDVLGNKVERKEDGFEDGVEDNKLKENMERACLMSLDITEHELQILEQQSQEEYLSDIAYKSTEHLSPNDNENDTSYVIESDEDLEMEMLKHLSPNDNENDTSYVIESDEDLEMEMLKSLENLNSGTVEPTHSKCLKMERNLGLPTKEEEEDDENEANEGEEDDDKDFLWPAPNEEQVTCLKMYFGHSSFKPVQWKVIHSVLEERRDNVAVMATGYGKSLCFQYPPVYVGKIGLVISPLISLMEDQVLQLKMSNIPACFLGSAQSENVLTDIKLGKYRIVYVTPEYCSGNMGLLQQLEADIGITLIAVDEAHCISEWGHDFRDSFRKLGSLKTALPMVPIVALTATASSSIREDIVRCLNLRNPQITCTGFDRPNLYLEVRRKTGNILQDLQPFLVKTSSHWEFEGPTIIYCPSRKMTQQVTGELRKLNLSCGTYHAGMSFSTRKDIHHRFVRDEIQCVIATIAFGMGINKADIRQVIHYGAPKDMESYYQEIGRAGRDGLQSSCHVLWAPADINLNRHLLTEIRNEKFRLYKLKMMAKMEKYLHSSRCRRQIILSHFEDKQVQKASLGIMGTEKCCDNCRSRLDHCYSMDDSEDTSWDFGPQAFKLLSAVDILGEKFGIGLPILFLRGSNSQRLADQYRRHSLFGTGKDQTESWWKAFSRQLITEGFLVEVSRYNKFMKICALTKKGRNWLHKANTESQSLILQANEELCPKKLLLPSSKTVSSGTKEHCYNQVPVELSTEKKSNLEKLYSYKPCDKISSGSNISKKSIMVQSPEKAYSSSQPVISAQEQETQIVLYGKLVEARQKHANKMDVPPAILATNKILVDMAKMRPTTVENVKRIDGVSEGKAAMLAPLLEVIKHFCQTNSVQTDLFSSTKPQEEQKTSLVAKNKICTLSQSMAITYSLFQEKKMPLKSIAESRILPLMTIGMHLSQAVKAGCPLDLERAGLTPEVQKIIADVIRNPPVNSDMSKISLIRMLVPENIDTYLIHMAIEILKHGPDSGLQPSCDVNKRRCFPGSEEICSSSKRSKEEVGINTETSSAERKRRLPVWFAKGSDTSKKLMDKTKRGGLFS

Row | Structure (SMILES) | IC50 [1, 3] [µM] | IC50 [2] [µM] | IC50 [1] [µM]
1 | C[C@@H](/C=C/S(C)(=O)=O)NC(=O)c1cnc(C2CC2)nc1OCC1CC1 [Example 150, (S,E)-2-cyclopropyl-4-(cyclopropylmethoxy)-N-(4-(methylsulfonyl)but-3-en-2-yl)pyrimidine-5-carboxamide] | 43 | > 100 | –
2 | C[C@@H](/C=C/S(C)(=O)=O)NC(=O)c1cnc(C2CC2)nc1O[C@H]1C[C@H](Cl)C1 [Example 151, 4-((1r,3S)-3-chlorocyclobutoxy)-2-cyclopropyl-N—((S,E)-4-(methylsulfonyl)but-3-en-2-yl)pyrimidine-5-carboxamide] | 59 | > 100 | –
3 | C[C@@H](/C=C/S(C)(=O)=O)NC(=O)c1cnc(C(C)(C)C)nc1OC1CCC(F)(F)CC1 [Example 155, (S,E)-2-(tert-butyl)-4-((4,4-difluorocyclohexyl)oxy)-N-(4-(methylsulfonyl)but-3-en-2-yl)pyrimidine-5-carboxamide] | 15 | 20 | –
4 | C[C@@H](/C=C/S(C)(=O)=O)NC(=O)c1cnc(C(C)(C)C)nc1OC1CC(F)(F)C1 [Example 156, (S,E)-2-(tert-butyl)-4-(3,3-difluorocyclobutoxy)-N-(4-(methylsulfonyl)but-3-en-2-yl)pyrimidine-5-carboxamide] | 15 | 40 | –
5 | C[C@@H](/C=C/S(C)(=O)=O)NC(=O)c1cnc(C(C)(C)C)nc1OC1(C#N)CCCC1 [Example 161, (S,E)-2-(tert-butyl)-4-((1-cyanocyclopentyl)oxy)-N-(4-(methylsulfonyl)but-3-en-2-yl)pyrimidine-5-carboxamide] | 154 | > 100 | –
6 | Cc1nc(C2CCCC2)nc(Oc2ccccc2)c1C(=O)N[C@@H](C)/C=C/S(C)(=O)=O [Example 162, (S,E)-2-cyclopentyl-4-methyl-N-(4-(methylsulfonyl)but-3-en-2-yl)-6-phenoxypyrimidine-5-carboxamide] | 128 | > 100 | –
7 | C[C@@H](/C=C/S(C)(=O)=O)NC(=O)c1cnc(N2CC3(CCC3)C2)nc1Oc1ccccc1 [Example 170, (S,E)-N-(4-(methylsulfonyl)but-3-en-2-yl)-4-phenoxy-2-(2-azaspiro[3.3]heptan-2-yl)pyrimidine-5-carboxamide] | 137 | > 100 | –
8 | C[C@@H](/C=C/S(C)(=O)=O)NC(=O)c1cnc(N2CCC(F)(F)C2)nc1Oc1ccccc1 [Example 173, (S,E)-2-(3,3-difluoropyrrolidin-1-yl)-N-(4-(methylsulfonyl)but-3-en-2-yl)-4-phenoxypyrimidine-5-carboxamide] | 48 | > 100 | –
9 | CS(=O)(=O)/C=C/[C@@H](NC(=O)c1cnc(N2CC(F)(F)C2)nc1Oc1ccccc1)C1CC1 [Example 183, (S,E)-N-(1-cyclopropyl-3-(methylsulfonyl)allyl)-2-(3,3-difluoroazetidin-1-yl)-4-phenoxypyrimidine-5-carboxamide] | 2.9 | 64.4 | –
10 | CN(C/C=C/S(C)(=O)=O)C(=O)c1cnc(C2CCCC2)nc1Oc1ccccc1 [Example 187, (E)-2-cyclopentyl-N-methyl-N-(3-(methylsulfonyl)allyl)-4-phenoxypyrimidine-5-carboxamide] | 52 | > 100 | –
11 | C[C@@H](/C=C/S(C)(=O)=O)NC(=O)c1cnc(C2CC2)c(F)c1Oc1ccccc1 [Example 205, (S,E)-6-cyclopropyl-5-fluoro-N-(4-(methylsulfonyl)but-3-en-2-yl)-4-phenoxynicotinamide] | 20 | > 100 | –
12 | C[C@@H](/C=C/S(C)(=O)=O)NC(=O)c1ncc(C2=CCCC2)nc1Oc1ccccc1 [Example 207, (S,E)-5-(cyclopent-1-en-1-yl)-N-(4-(methylsulfonyl)but-3-en-2-yl)-3-phenoxypyrazine-2-carboxamide] | 52 | > 100 | –
13 | CS(=O)(=O)/C=C/CNC(=O)c1cnc(-c2ccn[nH]2)nc1Oc1ccccc1 [Example 209, (E)-N-(3-(methylsulfonyl)allyl)-4-phenoxy-2-(1H-pyrazol-5-yl)pyrimidine-5-carboxamide] | 18 | > 100 | –
14 | C[C@@H](/C=C/S(C)(=O)=O)NC(=O)c1cnc(C2=CCCOC2)nc1Oc1ccccc1 [Example 211, (S,E)-2-(5,6-dihydro-2H-pyran-3-yl)-N-(4-(methylsulfonyl)but-3-en-2-yl)-4-phenoxypyrimidine-5-carboxamide] | 51 | > 100 | –
15 | C[C@@H](/C=C/S(C)(=O)=O)NC(=O)c1cnc(C2CCCOC2)nc1Oc1ccccc1 (stereo partly drawn) [Example 212, N—((S,E)-4-(methylsulfonyl)but-3-en-2-yl)-4-phenoxy-2-(tetrahydro-2H-pyran-3-yl)pyrimidine-5-carboxamide] | 31 | > 100 | –
16 | CS(=O)(=O)/C=C/[C@@H](NC(=O)c1cc2c(nc1Oc1ccccc1)C(F)(F)CC2)C1CC1 [Example 237, (S,E)-N-(1-cyclopropyl-3-(methylsulfonyl)allyl)-7,7-difluoro-2-phenoxy-6,7-dihydro-5H-cyclopenta[b]pyridine-3-carboxamide] | 17 | 0.5 | –
17 | C[C@@H](/C=C/S(C)(=O)=O)NC(=O)c1cnc(C2CCOCC2)nc1Oc1ccccc1 [Example 238, (S,E)-N-(4-(methylsulfonyl)but-3-en-2-yl)-4-phenoxy-2-(tetrahydro-2H-pyran-4-yl)pyrimidine-5-carboxamide] | 53 | > 100 | –
18 | C[C@@H](/C=C/S(C)(=O)=O)NC(=O)c1cnc(C2CCCC2)nc1C1CCCCC1 [Example 239, (S,E)-4-cyclohexyl-2-cyclopentyl-N-(4-(methylsulfonyl)but-3-en-2-yl)pyrimidine-5-carboxamide] | 148 | > 100 | –
19 | C[C@@H](/C=C/S(C)(=O)=O)NC(=O)c1cnc(CC2CCCCC2)nc1Oc1ccccc1 [Example 240, (S,E)-2-(cyclohexylmethyl)-N-(4-(methylsulfonyl)but-3-en-2-yl)-4-phenoxypyrimidine-5-carboxamide] | 67 | > 100 | –
20 | C[C@@H](/C=C/S(C)(=O)=O)NC(=O)c1cc2c(nc1Oc1ccccc1)CCC2 [Example 243, (S,E)-N-(4-(methylsulfonyl)but-3-en-2-yl)-2-phenoxy-6,7-dihydro-5H-cyclopenta[b]pyridine-3-carboxamide] | 43 | > 100 | –
21 | COc1ncc(C(=O)N[C@H](/C=C/S(C)(=O)=O)C2CC2)c(Oc2ccccc2)n1 [Example 244, (S,E)-N-(1-cyclopropyl-3-(methylsulfonyl)allyl)-2-methoxy-4-phenoxypyrimidine-5-carboxamide] | 20 | 0.49 | –
22 | CC(=O)Nc1nc(C2CCCC2)nc(Oc2ccccc2)c1C(=O)N[C@@H](C)/C=C/S(C)(=O)=O [Example 256, (S,E)-4-acetamido-2-cyclopentyl-N-(4-(methylsulfonyl)but-3-en-2-yl)-6-phenoxypyrimidine-5-carboxamide] | 42 | > 100 | –
23 | C[C@@H](/C=C/S(C)(=O)=O)NC(=O)c1cnc(C2CC2)c2c1OC1(CCCC1)C2 [Example 259, (S,E)-4′-cyclopropyl-N-(4-(methylsulfonyl)but-3-en-2-yl)-3′H-spiro[cyclopentane-1,2′-furo[3,2-c]pyridine]-7′-carboxamide] | – | 0.12 | 7

From patent publication US20250188040A1, “PHARMACEUTICAL COMPOSITIONS COMPRISING WRN HELICASE INHIBITORS” (Vividion Therapeutics, Inc., priority 2022, published 2025)
